Literature values as cited in US11564931B2, “Low benzalkonium chloride bimatoprost ophthalmic compositions with effective penetration and preservation properties” (Somerset Therapeutics LLC, priority 2019, dated 2023).

Details: patients starting on monotherapy; Covert D et al. 2006
For `CC(C)OC(=O)CCC/C=C\C[C@@H]1[C@@H](/C=C/[C@@H](O)COc2cccc(C(F)(F)F)c2)[C@H](O)C[C@@H]1O` [travoprost], the “Rate of adjunctive medication use” value is listed as 22.5%.
In the case of `CCNC(=O)CCC/C=C\C[C@@H]1[C@@H](/C=C/[C@@H](O)CCc2ccccc2)[C@H](O)C[C@@H]1O` [bimatoprost, (Z)-7-[(1R, 2R, 3R, 5S)-3,5-Dihydroxy-2-[(1E, 3S)-3-hydroxy-5-phenyl-1-pentenyl]cyclopentyl]-5-N-ethylheptenamide], the “Rate of adjunctive medication use” value is given as 23.2%.
In the case of `CC(C)OC(=O)CCC/C=C\C[C@@H]1[C@@H](CC[C@@H](O)CCc2ccccc2)[C@H](O)C[C@@H]1O` [latanoprost], the “Rate of adjunctive medication use” value is listed as 30.2%.
